These results are taken from PubChem BioAssay (NCI).

Test systems include A549 NSCLC; UACC-62 melanoma; OVCAR-3 ovarian; 786-0 renal; CCRF-CEM leukemia; NCI-H226 lung; SK-OV-3 ovarian; SNB-75 CNS; UACC-257 melanoma; HCT-15 colon.
Common to all, as to assay: growth of human tumour cells (NCI), 48 h

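These data come from cells grown in 96-well plates and exposed to compound for 48 hours at five concentrations. Here, GI50 denotes the concentration required for 50% inhibition of growth. Definition used: TGI = concentration required for complete inhibition of growth.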

`O=c1cc(-c2cccc3c2Sc2ccccc2S3)oc(N2CCOCC2)c1`: the GI50 in the test on A549 NSCLC was 10.4 µM; in the test with UACC-62 melanoma, 6.55 µM; in the test with OVCAR-3 ovarian, 10.1 µM; with 786-0 renal, 4.05 µM; with CCRF-CEM leukemia, 21.1 µM; in the test with NCI-H226 lung it was 10.8 µM. Besides, the GI50 in the test on SK-OV-3 ovarian was 13.4 µM; in the test on SNB-75 CNS it was 4.97 µM; in the test on UACC-257 melanoma, 13.9 µM; with HCT-15 colon, 8.68 µM. The TGI is 26.7 µM with A549 NSCLC; 22.1 µM with UACC-62 melanoma; 21.9 µM with OVCAR-3 ovarian; 18.3 µM with 786-0 renal; greater than 55.8 µM in the test with CCRF-CEM leukemia; 34.3 µM in the test with NCI-H226 lung. Also, the TGI was found to be 27.3 µM with SK-OV-3 ovarian, 19.9 µM in the test on SNB-75 CNS, 27.1 µM in the test with UACC-257 melanoma and 24.3 µM in the test with HCT-15 colon.
With `O=C(c1ccccc1)C1OC12C(=O)Nc1c(Cl)cc(Cl)cc12` (stereo unspecified), the TGI in the test with A549 NSCLC was greater than 100 µM; in the test with UACC-62 melanoma it was greater than 100 µM; in the test on OVCAR-3 ovarian, greater than 100 µM; in the test with 786-0 renal, greater than 100 µM; in the test on CCRF-CEM leukemia, 27.2 µM; with NCI-H226 lung it was greater than 100 µM. Besides, the TGI in the test on SK-OV-3 ovarian is greater than 100 µM; in the test on SNB-75 CNS it was 29.5 µM; in the test with UACC-257 melanoma, greater than 100 µM; with HCT-15 colon, greater than 70 µM.
On to `CCOC(=O)c1cc2c(cc1Cl)SC(N(c1ccc(OC)cc1)S(=O)(=O)c1ccc(Cl)cc1)=NS2(=O)=O`, for which the GI50 was 33.4 µM in the test on A549 NSCLC; 34.6 µM with UACC-62 melanoma; 22.1 µM in the test with OVCAR-3 ovarian; 62.2 µM in the test on 786-0 renal; 0.666 µM with CCRF-CEM leukemia; 94.1 µM in the test with NCI-H226 lung. Further, the results for the GI50 with SK-OV-3 ovarian, with SNB-75 CNS and in the test on HCT-15 colon were greater than 100 µM, 23.3 µM and 32.3 µM, respectively. For the same compound, the TGI with A549 NSCLC is greater than 100 µM; with UACC-62 melanoma, greater than 100 µM; in the test with OVCAR-3 ovarian, 54.4 µM; with 786-0 renal, greater than 100 µM; in the test on CCRF-CEM leukemia, greater than 100 µM; in the test with NCI-H226 lung, greater than 100 µM. For the same compound, the TGI with SK-OV-3 ovarian is greater than 100 µM; in the test on SNB-75 CNS, 90.4 µM; in the test with HCT-15 colon, greater than 100 µM.
As to `C#CCSc1cc(Cl)c(C)cc1S(=O)(=O)Nc1nc2ccccc2o1`, the GI50 with A549 NSCLC was 31.8 µM; in the test with UACC-62 melanoma it was 25.5 µM; in the test on OVCAR-3 ovarian, 31.9 µM; in the test with 786-0 renal, 31.9 µM; with CCRF-CEM leukemia it was 26.2 µM; in the test with NCI-H226 lung it was 57 µM. For the same compound, the values for the GI50 in the test with SNB-75 CNS, with UACC-257 melanoma and in the test with HCT-15 colon were 85.8 µM, 29.4 µM and 31.5 µM, respectively. Also, the TGI is greater than 100 µM in the test on A549 NSCLC; 61.9 µM with UACC-62 melanoma; 76.9 µM in the test on OVCAR-3 ovarian; 91.4 µM in the test with 786-0 renal; greater than 100 µM with CCRF-CEM leukemia; greater than 100 µM in the test on NCI-H226 lung. In addition, the figures for the TGI with SNB-75 CNS, in the test with UACC-257 melanoma and in the test with HCT-15 colon were greater than 100 µM, 81.6 µM and 90 µM, respectively.
Turning to `C/C(CC(=O)Nc1ccc(C)c(C)c1)=N\NC(N)=O`, the TGI with A549 NSCLC, in the test on UACC-62 melanoma, with OVCAR-3 ovarian, in the test with 786-0 renal, in the test with CCRF-CEM leukemia and with NCI-H226 lung was greater than 100 µM throughout. Moreover, the TGI in the test with SK-OV-3 ovarian, in the test with SNB-75 CNS and in the test on UACC-257 melanoma was greater than 100 µM throughout.
As for `CCOC(=O)C1c2[nH]c3ccccc3c2CCN1C(=O)c1ccc(OC)o1` (stereo unspecified), the TGI in the test on OVCAR-3 ovarian, in the test with 786-0 renal, in the test on CCRF-CEM leukemia, in the test on NCI-H226 lung, in the test with SK-OV-3 ovarian and in the test on SNB-75 CNS was greater than 10 µM throughout. In addition, the TGI in the test with UACC-257 melanoma and in the test on HCT-15 colon was greater than 10 µM throughout.
In the case of `Cc1ccc(/C(O)=C/C(=O)C(=O)NC23CC4CC(CC(C4)C2)C3)cc1`, the TGI with A549 NSCLC, with UACC-62 melanoma, in the test with 786-0 renal, with CCRF-CEM leukemia, in the test on SK-OV-3 ovarian and in the test with SNB-75 CNS was greater than 10 µM throughout. Moreover, the TGI with UACC-257 melanoma and in the test with HCT-15 colon was greater than 10 µM throughout.
For the compound `CC1=C(O)C(=O)C2C(=O)C1C1Cc3ccccc3C21` (stereo unspecified), the TGI in the test with A549 NSCLC, in the test with UACC-62 melanoma, with OVCAR-3 ovarian, in the test with 786-0 renal, in the test with CCRF-CEM leukemia and with NCI-H226 lung was greater than 100 µM each time. The TGI with SK-OV-3 ovarian, in the test on SNB-75 CNS and with HCT-15 colon was greater than 100 µM in each case.
Take `O=C(Nc1ccc(Cl)c(Cl)c1)Nc1c(Oc2ccc(Cl)c(Cl)c2)ccc(Cl)c1S(=O)(=O)O`: the GI50 with A549 NSCLC was 3.53 µM; in the test with UACC-62 melanoma, 1.97 µM; in the test with 786-0 renal, 3.05 µM; in the test with CCRF-CEM leukemia it was 4.03 µM; with NCI-H226 lung, 3.91 µM; in the test on SNB-75 CNS it was 1.51 µM. In addition, the TGI in the test with A549 NSCLC was greater than 100 µM; in the test on UACC-62 melanoma, greater than 100 µM; in the test with 786-0 renal it was 29.8 µM; in the test with CCRF-CEM leukemia, greater than 100 µM; with NCI-H226 lung it was greater than 100 µM; in the test on SNB-75 CNS, 4.53 µM.
Take `O=C(CCN1CCN(c2ccccc2)CC1)N1CCc2c([nH]c3ccccc23)C1c1cccnc1` (stereo unspecified): the TGI in the test with A549 NSCLC came to 29.7 µM; in the test on OVCAR-3 ovarian, 30.7 µM; in the test with 786-0 renal, 29.5 µM; in the test on CCRF-CEM leukemia, 69.7 µM; in the test on NCI-H226 lung it was 71.9 µM; in the test with SK-OV-3 ovarian it was 33.7 µM. The TGI was determined as 53.3 µM with SNB-75 CNS, 31.5 µM in the test with UACC-257 melanoma and 30.9 µM in the test on HCT-15 colon.
As for `NC(=O)/N=C1/CCC2C3CCCC2C13`, the TGI in the test with A549 NSCLC, with UACC-62 melanoma, in the test on OVCAR-3 ovarian, with 786-0 renal, in the test on CCRF-CEM leukemia and in the test with NCI-H226 lung was greater than 100 µM in each case. Besides, the TGI in the test with SK-OV-3 ovarian, in the test on SNB-75 CNS and in the test on UACC-257 melanoma was greater than 100 µM throughout.
On to `COc1ccc(-c2cc(=O)c3cc(OC)ccc3[nH]2)cc1`, for which the TGI in the test with A549 NSCLC, in the test with UACC-62 melanoma, in the test with OVCAR-3 ovarian, with 786-0 renal, with CCRF-CEM leukemia and in the test on NCI-H226 lung was greater than 100 µM throughout. Besides, the TGI in the test on SK-OV-3 ovarian, in the test with SNB-75 CNS and in the test with UACC-257 melanoma was greater than 100 µM each time.
Regarding `CN1C(=O)C2C3C=C4c5ccccc5N(c5ccccc5)C4(C2C1=O)[C@H]1C(=O)N(C)C(=O)[C@@H]31` (stereo partly specified), the TGI in the test on A549 NSCLC, in the test with UACC-62 melanoma, with OVCAR-3 ovarian, with 786-0 renal, in the test on CCRF-CEM leukemia and in the test with NCI-H226 lung was greater than 100 µM each time. Further, the TGI in the test with SK-OV-3 ovarian, with SNB-75 CNS and with UACC-257 melanoma was greater than 100 µM in each case.
Regarding `[N-]=[N+]=NCCCCCC(=O)OC(C(=O)c1ccccc1)c1cccc(OCC(=O)NCCOCCOCCNC(=O)CCCC[C@@H]2SC[C@@H]3NC(=O)N[C@@H]32)c1` (stereo partly specified), the GI50 was greater than 100 µM with A549 NSCLC; greater than 100 µM in the test with UACC-62 melanoma; greater than 100 µM in the test with 786-0 renal; 52.2 µM in the test on CCRF-CEM leukemia; greater than 100 µM in the test with NCI-H226 lung; greater than 100 µM in the test on SK-OV-3 ovarian. Further, the GI50 in the test with SNB-75 CNS was 95.8 µM; in the test with UACC-257 melanoma, greater than 100 µM; with HCT-15 colon it was greater than 100 µM. The TGI in the test with A549 NSCLC, in the test on UACC-62 melanoma, in the test with 786-0 renal, with CCRF-CEM leukemia, in the test with NCI-H226 lung and in the test with SK-OV-3 ovarian was greater than 100 µM each time. The TGI in the test on SNB-75 CNS, with UACC-257 melanoma and in the test on HCT-15 colon was greater than 100 µM in each case.
For the compound `Cc1cccc(C(C)(C)C)c1NC(=O)CC1C(=O)Nc2ccccc2S1(=O)=O` (stereo unspecified), the TGI came out at 27.9 µM with A549 NSCLC; 18.6 µM in the test on UACC-62 melanoma; 18.1 µM with OVCAR-3 ovarian; 21.5 µM in the test on 786-0 renal; 7.8 µM with CCRF-CEM leukemia; 32.8 µM with NCI-H226 lung. Further, the TGI in the test on SNB-75 CNS is 30.4 µM; in the test on UACC-257 melanoma, greater than 100 µM; with HCT-15 colon it was 16.3 µM.
Turning to `COc1ccc2ccccc2c1C1NC(=O)c2ccccc2N1` (stereo unspecified), the TGI was greater than 51.8 µM in the test with A549 NSCLC; 1.92 µM in the test with OVCAR-3 ovarian; greater than 38 µM in the test on 786-0 renal; greater than 28.3 µM in the test on CCRF-CEM leukemia; 13.4 µM in the test with NCI-H226 lung; 9.29 µM with SK-OV-3 ovarian. Besides, the TGI was greater than 100 µM in the test on UACC-257 melanoma and 6.21 µM in the test on HCT-15 colon.
As for `Cn1cnc([N+](=O)[O-])c1Sc1nccn1-c1cccc2ccccc12`, the TGI is greater than 100 µM with A549 NSCLC; 33.9 µM with UACC-62 melanoma; 75.2 µM in the test on OVCAR-3 ovarian; greater than 100 µM in the test with 786-0 renal; 68.5 µM with CCRF-CEM leukemia; 59.6 µM with NCI-H226 lung. For the same compound, the TGI in the test with SK-OV-3 ovarian is greater than 100 µM; in the test with SNB-75 CNS, 87.5 µM; with UACC-257 melanoma it was greater than 100 µM.
Turning to `CC(=O)C1C(c2ccc(N(C)C)cc2)c2cc3c(cc2OC1(C)O)OCO3` (stereo unspecified), the TGI in the test with A549 NSCLC, in the test on UACC-62 melanoma, in the test on OVCAR-3 ovarian, in the test with 786-0 renal, with CCRF-CEM leukemia and in the test on SK-OV-3 ovarian was greater than 100 µM in each case. In addition, the TGI was 68.2 µM in the test with SNB-75 CNS, greater than 100 µM with UACC-257 melanoma and greater than 100 µM in the test on HCT-15 colon.
